Columns and labels:
[1] = biological target: T1, Alpha-1D adrenergic receptor (Homo sapiens, UniProt P25100); test: Binding affinity against Alpha-1D adrenergic receptor, from human clones.
T1 sequence (P25100 whole entry): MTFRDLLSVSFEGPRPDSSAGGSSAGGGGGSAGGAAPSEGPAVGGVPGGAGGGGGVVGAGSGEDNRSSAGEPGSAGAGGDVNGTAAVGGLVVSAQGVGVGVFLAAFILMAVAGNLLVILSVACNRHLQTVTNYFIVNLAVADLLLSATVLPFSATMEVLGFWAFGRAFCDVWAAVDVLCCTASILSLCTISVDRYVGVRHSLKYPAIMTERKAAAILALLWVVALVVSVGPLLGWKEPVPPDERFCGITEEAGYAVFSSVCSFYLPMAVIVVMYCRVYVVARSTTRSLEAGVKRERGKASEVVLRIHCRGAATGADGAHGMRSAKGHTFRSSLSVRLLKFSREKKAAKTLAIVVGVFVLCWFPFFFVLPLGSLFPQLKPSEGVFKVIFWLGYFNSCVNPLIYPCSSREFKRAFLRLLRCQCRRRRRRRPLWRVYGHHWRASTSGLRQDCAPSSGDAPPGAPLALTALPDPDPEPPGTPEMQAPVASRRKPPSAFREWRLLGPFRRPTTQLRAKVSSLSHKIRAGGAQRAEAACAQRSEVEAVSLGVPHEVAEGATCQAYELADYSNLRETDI

[2] = biological target: T2, Alpha-1D adrenergic receptor (Rattus norvegicus, UniProt P23944); test: Binding affinity against Alpha-1D adrenergic receptor, from rat clones.
T2 sequence (P23944 whole entry): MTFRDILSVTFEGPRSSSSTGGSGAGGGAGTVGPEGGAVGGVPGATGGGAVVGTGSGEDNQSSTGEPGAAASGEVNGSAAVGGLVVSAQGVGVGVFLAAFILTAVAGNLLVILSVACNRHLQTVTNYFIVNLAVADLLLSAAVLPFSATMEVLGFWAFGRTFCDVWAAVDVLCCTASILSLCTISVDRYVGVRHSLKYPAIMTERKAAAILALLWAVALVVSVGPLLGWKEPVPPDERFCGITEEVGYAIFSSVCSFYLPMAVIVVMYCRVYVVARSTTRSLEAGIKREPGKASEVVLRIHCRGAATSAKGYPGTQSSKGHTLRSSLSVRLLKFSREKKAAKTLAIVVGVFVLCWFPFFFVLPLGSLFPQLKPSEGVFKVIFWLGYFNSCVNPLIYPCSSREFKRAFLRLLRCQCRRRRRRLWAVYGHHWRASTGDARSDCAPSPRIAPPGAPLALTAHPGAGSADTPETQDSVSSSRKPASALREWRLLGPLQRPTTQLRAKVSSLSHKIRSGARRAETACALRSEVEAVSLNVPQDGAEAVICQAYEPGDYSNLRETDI

[3] = biological target: T3, Alpha-1B adrenergic receptor (Homo sapiens, UniProt P35368); test: Binding affinity against Alpha-1B adrenergic receptor from human clone
T3 sequence (P35368 whole entry): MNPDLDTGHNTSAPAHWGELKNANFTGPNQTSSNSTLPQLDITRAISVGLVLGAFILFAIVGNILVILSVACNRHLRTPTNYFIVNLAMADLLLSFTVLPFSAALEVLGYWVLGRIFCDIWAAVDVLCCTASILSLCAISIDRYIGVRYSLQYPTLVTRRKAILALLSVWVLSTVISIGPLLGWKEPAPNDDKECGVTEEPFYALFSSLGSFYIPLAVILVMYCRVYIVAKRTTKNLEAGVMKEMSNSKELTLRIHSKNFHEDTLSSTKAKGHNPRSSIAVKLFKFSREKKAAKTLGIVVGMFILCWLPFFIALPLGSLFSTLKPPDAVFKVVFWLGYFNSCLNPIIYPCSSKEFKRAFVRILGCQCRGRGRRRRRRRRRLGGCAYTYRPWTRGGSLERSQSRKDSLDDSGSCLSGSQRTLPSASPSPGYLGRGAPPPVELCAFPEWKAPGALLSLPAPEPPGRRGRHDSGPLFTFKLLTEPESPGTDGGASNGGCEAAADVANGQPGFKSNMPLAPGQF

[4] = biological target: T4, Alpha-2B adrenergic receptor (Homo sapiens, UniProt P18089); test: Binding affinity against Alpha-2B adrenergic receptor from human clones.
T4 sequence (P18089 whole entry): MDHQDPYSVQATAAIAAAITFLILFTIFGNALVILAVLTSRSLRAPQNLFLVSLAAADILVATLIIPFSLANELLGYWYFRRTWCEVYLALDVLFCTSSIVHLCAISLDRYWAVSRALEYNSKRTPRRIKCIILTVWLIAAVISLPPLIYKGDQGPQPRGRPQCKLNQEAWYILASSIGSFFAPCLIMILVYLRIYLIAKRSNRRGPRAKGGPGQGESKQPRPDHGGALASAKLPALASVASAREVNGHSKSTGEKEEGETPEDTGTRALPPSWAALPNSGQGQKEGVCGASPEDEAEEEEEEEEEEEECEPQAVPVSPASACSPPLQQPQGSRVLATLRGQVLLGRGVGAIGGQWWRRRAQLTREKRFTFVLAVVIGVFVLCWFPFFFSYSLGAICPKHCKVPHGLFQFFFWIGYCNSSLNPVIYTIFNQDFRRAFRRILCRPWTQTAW

[5] = biological target: T5, Alpha-2A adrenergic receptor (Homo sapiens, UniProt P08913); test: Binding affinity against Alpha-2A adrenergic receptor, from human clones.
T5 sequence (P08913 whole entry): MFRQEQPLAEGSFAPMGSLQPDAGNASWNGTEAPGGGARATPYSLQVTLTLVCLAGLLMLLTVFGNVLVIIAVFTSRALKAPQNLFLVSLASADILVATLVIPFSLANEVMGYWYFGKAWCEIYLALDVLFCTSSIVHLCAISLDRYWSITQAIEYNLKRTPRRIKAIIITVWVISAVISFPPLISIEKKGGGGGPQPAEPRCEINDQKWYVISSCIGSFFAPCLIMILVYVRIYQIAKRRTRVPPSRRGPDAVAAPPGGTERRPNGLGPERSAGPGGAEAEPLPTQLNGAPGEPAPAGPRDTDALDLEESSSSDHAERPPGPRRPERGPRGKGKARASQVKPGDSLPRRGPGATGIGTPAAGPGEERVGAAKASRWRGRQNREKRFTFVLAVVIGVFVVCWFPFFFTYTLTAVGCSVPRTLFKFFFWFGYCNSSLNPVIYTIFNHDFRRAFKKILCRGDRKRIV

[6] = biological target: T6, Alpha-2A adrenergic receptor (Rattus norvegicus, UniProt P22909); test: The compound was tested for binding affinity against alpha-2D adrenergic receptor, from rat clones.
T6 sequence (P22909 whole entry): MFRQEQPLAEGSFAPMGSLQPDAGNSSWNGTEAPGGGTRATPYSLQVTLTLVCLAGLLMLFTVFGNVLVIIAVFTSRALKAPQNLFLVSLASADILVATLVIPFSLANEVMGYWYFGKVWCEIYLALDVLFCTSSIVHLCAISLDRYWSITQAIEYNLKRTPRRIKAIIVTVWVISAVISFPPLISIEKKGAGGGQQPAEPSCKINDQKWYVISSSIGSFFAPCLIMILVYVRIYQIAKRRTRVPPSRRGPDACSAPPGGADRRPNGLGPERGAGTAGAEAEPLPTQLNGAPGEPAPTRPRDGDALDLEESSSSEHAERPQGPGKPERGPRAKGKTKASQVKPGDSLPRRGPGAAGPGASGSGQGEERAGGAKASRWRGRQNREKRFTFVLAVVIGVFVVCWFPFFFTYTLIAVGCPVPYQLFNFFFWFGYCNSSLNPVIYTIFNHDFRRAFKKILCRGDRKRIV

[7] = biological target: T7, Alpha-2C adrenergic receptor (Homo sapiens, UniProt P18825); test: Binding affinity against Alpha-2C adrenergic receptor from human clones.
T7 sequence (P18825 whole entry): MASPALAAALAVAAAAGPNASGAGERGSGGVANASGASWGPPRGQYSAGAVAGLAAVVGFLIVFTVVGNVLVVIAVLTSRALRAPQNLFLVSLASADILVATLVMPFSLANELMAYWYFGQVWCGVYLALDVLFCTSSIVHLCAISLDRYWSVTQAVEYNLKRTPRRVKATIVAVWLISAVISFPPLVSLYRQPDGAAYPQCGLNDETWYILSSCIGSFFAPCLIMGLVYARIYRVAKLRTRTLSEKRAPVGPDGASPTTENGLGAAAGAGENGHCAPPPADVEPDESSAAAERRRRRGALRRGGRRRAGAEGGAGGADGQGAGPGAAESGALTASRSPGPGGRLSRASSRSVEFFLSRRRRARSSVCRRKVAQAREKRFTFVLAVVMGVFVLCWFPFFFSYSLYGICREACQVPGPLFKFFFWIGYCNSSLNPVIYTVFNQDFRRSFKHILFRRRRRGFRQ

[8] = biological target: T8, Alpha-1A adrenergic receptor (Bos taurus, UniProt P18130); test: Binding affinity against Alpha-1A adrenergic receptor from bovine clone
T8 sequence (P18130 whole entry): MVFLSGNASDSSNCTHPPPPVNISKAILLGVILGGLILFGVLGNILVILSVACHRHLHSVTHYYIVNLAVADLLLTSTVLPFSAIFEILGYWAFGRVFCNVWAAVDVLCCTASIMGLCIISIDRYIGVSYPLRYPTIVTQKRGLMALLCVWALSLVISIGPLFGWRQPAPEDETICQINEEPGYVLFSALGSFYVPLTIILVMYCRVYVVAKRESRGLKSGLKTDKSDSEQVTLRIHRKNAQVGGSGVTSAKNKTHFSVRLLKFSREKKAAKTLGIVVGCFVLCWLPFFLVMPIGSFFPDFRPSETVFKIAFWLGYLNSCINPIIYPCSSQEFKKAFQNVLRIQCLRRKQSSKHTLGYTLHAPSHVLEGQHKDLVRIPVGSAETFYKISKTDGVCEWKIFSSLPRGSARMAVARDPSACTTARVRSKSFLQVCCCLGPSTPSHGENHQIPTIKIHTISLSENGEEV

[9] = biological target: T9, Alpha-2A adrenergic receptor (Bos taurus, UniProt Q28838); test: Compound was evaluated for inhibition of binding of [3H]MK-91 to Alpha-2 adrenergic receptor in bovine pineal
T9 sequence (Q28838 whole entry): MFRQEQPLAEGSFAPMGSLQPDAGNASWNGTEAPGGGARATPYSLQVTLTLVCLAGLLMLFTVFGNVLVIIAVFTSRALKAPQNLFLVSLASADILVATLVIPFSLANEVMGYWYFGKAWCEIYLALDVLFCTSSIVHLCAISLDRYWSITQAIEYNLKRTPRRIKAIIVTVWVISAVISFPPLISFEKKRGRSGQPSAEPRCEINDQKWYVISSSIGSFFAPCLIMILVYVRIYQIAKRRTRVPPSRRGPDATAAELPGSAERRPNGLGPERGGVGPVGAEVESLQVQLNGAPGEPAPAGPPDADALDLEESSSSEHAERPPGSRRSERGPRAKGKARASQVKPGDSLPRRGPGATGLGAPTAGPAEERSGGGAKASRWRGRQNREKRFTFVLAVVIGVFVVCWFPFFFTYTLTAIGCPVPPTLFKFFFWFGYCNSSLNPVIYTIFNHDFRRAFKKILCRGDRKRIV

[10] = biological target: T10, Alpha-2A adrenergic receptor (Sus scrofa, UniProt P18871)
T10 sequence (P18871 whole entry): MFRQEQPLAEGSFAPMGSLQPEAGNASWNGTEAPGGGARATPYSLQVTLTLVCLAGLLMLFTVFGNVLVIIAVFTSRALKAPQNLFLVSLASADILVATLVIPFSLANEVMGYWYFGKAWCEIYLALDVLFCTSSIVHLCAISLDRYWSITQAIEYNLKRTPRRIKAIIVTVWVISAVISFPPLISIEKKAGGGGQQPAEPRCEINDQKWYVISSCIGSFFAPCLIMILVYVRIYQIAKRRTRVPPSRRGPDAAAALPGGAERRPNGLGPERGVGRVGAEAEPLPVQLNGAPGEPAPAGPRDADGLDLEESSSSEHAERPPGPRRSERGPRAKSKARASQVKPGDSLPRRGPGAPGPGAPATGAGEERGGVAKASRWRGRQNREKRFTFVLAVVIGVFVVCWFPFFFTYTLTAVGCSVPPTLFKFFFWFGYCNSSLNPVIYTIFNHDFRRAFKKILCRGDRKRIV

For `COc1cc2nc(N(C)CCCNC(=O)C3CCCO3)nc(N)c2cc1OC` (stereo unspecified) [ALFUZOSIN], the Ki [1] was 3.6 nM, the Ki [2] was 3.5 nM and the Ki [3] was 2.8 nM.

Work on `CC(C)=CCOc1ccc(Cl)c2c1CCN(C)CC2` yielded a Ki [4] of 142 nM, a Ki [5] of 114 nM and a Ki [6] of 313 nM. For the same compound, the Ki [7] was 64 nM.

`COc1cc2c(cc1OC)CN(c1cc(N)c3cc(OC)c(OC)cc3n1)CC2` [ABANOQUIL] was tested, and the Ki [2] was 0.03 nM and the Ki [8] was 0.03 nM.

For `COc1cc2nc(N3CCN(C(=O)C4CCCO4)CC3)nc(N)c2cc1OC` (stereo unspecified) [TERAZOSIN], the Ki [1] was 3.5 nM, the Ki [2] was 35 nM and the Ki [5] was 3700 nM. The Ki [8] was 26 nM.

Work on `COC(=O)[C@H]1[C@H]2C[C@H]3c4[nH]c5ccccc5c4CCN3C[C@H]2CC[C@@H]1O` [RAUWOLSCINE] yielded a Ki [2] of 35 nM.

For `COc1cc2nc(N3CCN(C(=O)c4ccco4)CC3)nc(N)c2cc1OC` [PRAZOSIN], the Ki [9] was 106 nM and the Ki [10] was 4.1 µM.
